The values that follow come from US11766427B2, “Repurposing compounds for the treatment of infections and for modulating the composition of the gut microbiome” (EUROPEAN MOLECULAR BIOLOGY LABORATORY, priority 2018, dated 2023).

For test [1], the system named is 40 different bacterial species. Briefly: Prestwick Chemical Library growth screen, whole panel (hits, anticommensal activity). It counts as cell-based, human gut isolates. The conditions noted are these: for anticommensal activity in the screen (in words): 20 μM, 40 strains, FDR<0.01.
The subject of test [2] is Clostridium perfringens (NT5032). It counts as cell-based. The note with it: screen at 20 μM.
Test [3] has as its system Clostridium difficile (NT5083). Briefly: Prestwick Chemical Library growth screen (OD578 growth curves, AUC). The class given is cell-based. The note with it: screen at 20 μM.
In test [4] the test system is Bacteroides fragilis (ET) (NT5033). The class given is cell-based, Bacteroides fragilis enterotoxigenic. The note with it: screen at 20 μM.
The mark [5] stands for this setting: number of species inhibited of 40 different bacterial species tested.
Where [6] appears, read: number of the 40 strains inhibited at 20 μM (FDR<0.01).
Setting [7] is: number of the 40 bacterial species tested whose growth is inhibited, Table 7 broad-spectrum compounds.

Structures can show the parent of a compound that is named as a salt.

Regarding `O=C1c2ccccc2C(=O)C1c1ccccc1` [Phenindione], in test [1] (setting [5]), the n_hit came to 1. In addition, in test [2], the “selective inhibition of the growth of C. perfringens bacteria (in words)” value was “selectively inhibiting the growth”.
`O=c1[nH]c(=O)n([C@H]2C[C@H](O)[C@@H](CO)O2)cc1C(F)(F)F` [trifluridine]: the “anticommensal activity in the screen (in words)” value in test [1] is “anticommensal activity”.
Consider `CC(NCCC(c1ccccc1)c1ccccc1)c1ccccc1` (stereo not drawn) [Fendiline hydrochloride], for which, in test [1] (setting [6]), the n_hit is given as 8. In test [3], the “inhibition of the growth of C. difficile bacteria (in words)” value is listed as “effective in inhibiting the growth”.
`CCOC1O[C@H]([C@@H](COCc2ccccc2)OCc2ccccc2)[C@H](OCc2ccccc2)[C@H]1O` (stereo partly drawn) [Tribenoside]: the n_hit in test [1] (setting [6]) stood at 1. Moreover, in test [3], the “inhibition of the growth of C. difficile bacteria (in words)” value is “effective in inhibiting the growth”.
In test [1] (setting [5]), `Nc1ncn(C2OC(CO)C(O)C2O)c(=O)n1` (stereo not drawn) [Azacytidine-5] had a n_hit of 1. Moreover, the “selective inhibition of the growth of C. perfringens bacteria (in words)” value in test [2] is reported as “selectively inhibiting the growth”.
Regarding `CC#C[C@]1(O)CC[C@H]2[C@@H]3CCC4=CC(=O)CCC4=C3[C@@H](c3ccc(N(C)C)cc3)C[C@@]21C` [Mifepristone], the n_hit in test [1] (setting [6]) is reported as 3. The “inhibition of the growth of C. difficile bacteria (in words)” value in test [3] is “effective in inhibiting the growth”.
`O=C(O)c1ccccc1Nc1cccc(C(F)(F)F)c1` [Flufenamic acid] returned a n_hit in test [1] (setting [5]) of 4.
In turn, `O=C(O)Cc1cc(I)c(Oc2ccc(O)c(I)c2)c(I)c1` [Tiratricol] showed a n_hit in test [1] (setting [7]) of 14.
With `COC1=C(OC)C(=O)C(CCCCCCCCCCO)=C(C)C1=O` [Idebenone], the n_hit in test [1] (setting [5]) was found to be 3. Besides, the “selective inhibition of the growth of C. perfringens bacteria (in words)” value in test [2] was “selectively inhibiting the growth”.
For the compound `COc1ccc(CCN2CCC(Nc3nc4ccccc4n3Cc3ccc(F)cc3)CC2)cc1` [Astemizole], the n_hit in test [1] (setting [7]) was found to be 10.
`N[C@@H](Cc1cc(I)c(Oc2cc(I)c(O)c(I)c2)c(I)c1)C(=O)O` [Thyroxine (L)] yielded a n_hit in test [1] (setting [5]) of 3.
`CCCCC(=O)O[C@H]1CC[C@H]2[C@@H]3CCc4cc(O)ccc4[C@H]3CC[C@]12C` [Estradiol Valerate] registered a n_hit in test [1] (setting [7]) of 11.
Same read-out and setting: in the case of `CSc1ccc2c(c1)C(N1CCN(C)CC1)Cc1ccccc1S2.O=C(O)/C=C\C(=O)O` (stereo not drawn) [Methiothepin maleate] it was 10.
In the case of `CCOC(=O)C1=C(COCCN)NC(C)=C(C(=O)OC)C1c1ccccc1Cl` (stereo not drawn) [Amlodipine], the n_hit in test [1] (setting [6]) worked out at 2.
In test [1] (setting [7]), `Clc1ccc(Cn2c(CN3CCCC3)nc3ccccc32)cc1` [Clemizole hydrochloride] registered a n_hit of 15.
Same read-out and setting: in the case of `CC(C)COCC(CN(Cc1ccccc1)c1ccccc1)N1CCCC1` (stereo not drawn) [Bepridil hydrochloride] it was 14.
Turning to `C[C@@H]1C[C@H]2[C@@H]3CCC4=CC(=O)C=C[C@]4(C)[C@@]3(Cl)[C@@H](O)C[C@]2(C)[C@@]1(OC(=O)c1ccco1)C(=O)CCl` [Mometasone furoate], the n_hit in test [1] (setting [5]) is given as 1.
As to `COCCOC(=O)C1=C(C)NC(C)=C(C(=O)OC/C=C/c2ccccc2)C1c1cccc([N+](=O)[O-])c1` (stereo not drawn) [Cilnidipine], the n_hit in test [1] (setting [6]) is 5. In test [4], the “selective inhibition of the growth of an enterotoxigenic strain of Bacteroides fragilis (in words)” value is listed as “selectively inhibiting the growth”. In test [3], the “inhibition of the growth of C. difficile bacteria (in words)” value is “effective in inhibiting the growth”.
`Cn1cnc([N+](=O)[O-])c1Sc1ncnc2nc[nH]c12` [Azathioprine] registered a n_hit in test [1] (setting [6]) of 7. Moreover, the “inhibition of the growth of C. difficile bacteria (in words)” value in test [3] is reported as “effective in inhibiting the growth”.
In test [1] (setting [7]), `CCOC(=O)N1CCC(=C2c3ccc(Cl)cc3CCc3cccnc32)CC1` [Loratadine] had a n_hit of 15.
On the same count and under the same terms, in the case of `O=c1oc2ccccc2c(O)c1Cc1c(O)c2ccccc2oc1=O` [Dicumarol] it was 10.
For the compound `O=C1Nc2ccc(Cl)cc2[C@@](C#CC2CC2)(C(F)(F)F)O1` [efavirenz], the “anticommensal activity in the screen (in words)” value in test [1] is “anticommensal activity”.
As to `CC(=O)O[C@H]1C(=O)[C@@]2(C)[C@H]([C@H](OC(=O)c3ccccc3)[C@]3(O)C[C@H](OC(=O)[C@H](O)[C@@H](NC(=O)c4ccccc4)c4ccccc4)C(C)=C1C3(C)C)[C@]1(OC(C)=O)CO[C@@H]1C[C@@H]2O` [Paclitaxel], the n_hit in test [1] (setting [5]) stood at 1. Further, the “selective inhibition of the growth of C. perfringens bacteria (in words)” value in test [2] is on record as “selectively inhibiting the growth”.
In turn, `CNCCCC1c2ccccc2C=Cc2ccccc21` [Protriptyline hydrochloride] yielded a n_hit in test [1] (setting [5]) of 8. Besides, the “selective inhibition of the growth of an enterotoxigenic strain of Bacteroides fragilis (in words)” value in test [4] is recorded as “selectively inhibiting the growth”.
Consider `O=C1CCc2ccc(OCCCCN3CCN(c4cccc(Cl)c4Cl)CC3)cc2N1` [Aripiprazole], for which the n_hit in test [1] (setting [5]) was 3.
On to `O=C1c2c(O)cccc2Cc2cccc(O)c21` [Anthralin], for which the n_hit in test [1] (setting [7]) was found to be 11.
`Nc1ccn([C@@H]2O[C@H](CO)[C@@H](O)C2(F)F)c(=O)n1` [Gemcitabine] showed a n_hit in test [1] (setting [5]) of 2. The “selective inhibition of the growth of C. perfringens bacteria (in words)” value in test [2] is given as “selectively inhibiting the growth”.
As for `CCN(CC)C(C)CN1c2ccccc2Sc2ccccc21` (stereo not drawn) [Ethopropazine hydrochloride], in test [1] (setting [7]), the n_hit stood at 11.
For the compound `CN1CCCC(CC2c3ccccc3Sc3ccccc32)C1` (stereo not drawn) [Metixene hydrochloride], the n_hit in test [1] (setting [5]) is 9. Further, the “selective inhibition of the growth of an enterotoxigenic strain of Bacteroides fragilis (in words)” value in test [4] is listed as “selectively inhibiting the growth”.
`Nc1nc2ncc(CNc3ccc(C(=O)N[C@@H](CCC(=O)O)C(=O)O)cc3)nc2c(=O)[nH]1` [Folic acid]: the n_hit in test [1] (setting [5]) was 2.
On to `CC(C)(O)c1ccccc1CC[C@@H](SCC1(CC(=O)O)CC1)c1cccc(/C=C/c2ccc3ccc(Cl)cc3n2)c1` [Montelukast], for which the n_hit in test [1] (setting [6]) came to 8.
As to `CCOC(=O)C1=C(C)NC(C)=C(C(=O)OCC)C1c1ccccc1/C=C/C(=O)OC(C)(C)C` [Lacidipine], in test [1] (setting [6]), the n_hit came out at 6. For the same compound, the “inhibition of the growth of C. difficile bacteria (in words)” value in test [3] is on record as “effective in inhibiting the growth”.
The like results for `CC1(C)[C@@H](OC(=O)CCC(=O)O)CC[C@]2(C)[C@H]3C(=O)C=C4[C@@H]5C[C@@](C)(C(=O)O)CC[C@]5(C)CC[C@@]4(C)[C@]3(C)CC[C@@H]12` [Carbenoxolone disodium salt] were, in that order, 2 and “effective in inhibiting the growth”.
Turning to `Cc1cccc(N(C)C(=S)Oc2ccc3ccccc3c2)c1` [Tolnaftate], in test [1] (setting [5]), the n_hit is given as 5. For the same compound, in test [4], the “selective inhibition of the growth of an enterotoxigenic strain of Bacteroides fragilis (in words)” value is recorded as “selectively inhibiting the growth”.
Consider `CCCCc1oc2ccccc2c1C(=O)c1cc(I)c(OCCN(CC)CC)c(I)c1` [Amiodarone hydrochloride], for which the n_hit in test [1] (setting [7]) came to 10.
In test [1] (setting [5]), `C=C1/C(=C\C=C2/CCC[C@]3(C)[C@@H]([C@H](C)CCCC(C)C)CC[C@@H]23)C[C@@H](O)C[C@@H]1O` [Alfacalcidol] came in with a n_hit of 7. Besides, the “selective inhibition of the growth of C. perfringens bacteria (in words)” value in test [2] is given as “selectively inhibiting the growth”.
The compound `O=C(O)Cc1sc(-c2ccccc2)nc1-c1ccc(Cl)cc1` [Fentiazac] gave a n_hit in test [1] (setting [6]) of 1. Also, in test [3], the “inhibition of the growth of C. difficile bacteria (in words)” value was “effective in inhibiting the growth”.
On the same counts, the results for `COc1ccc2c(c1)C(=O)N(CCc1ccc(S(=O)(=O)NC(=O)NC3CCCCC3)cc1)C(=O)C2(C)C` [Gliquidone] are 1 and “effective in inhibiting the growth”.
In test [1] (setting [5]), `Cc1cc(-n2c(=O)[nH]c(=O)n(C)c2=O)ccc1Oc1ccc(SC(F)(F)F)cc1` [Toltrazuril] showed a n_hit of 7. Besides, the “selective inhibition of the growth of an enterotoxigenic strain of Bacteroides fragilis (in words)” value in test [4] is “selectively inhibiting the growth”.
The compound `C[C@H]1O[C@H](O[C@H]2[C@H](O)[C@@H](O)[C@@H](O[C@H]3[C@H](O)[C@@H](O)C(O)O[C@@H]3CO)O[C@@H]2CO)[C@H](O)[C@@H](O)[C@@H]1N[C@H]1C=C(CO)[C@@H](O)[C@H](O)[C@H]1O` (stereo partly drawn) [Acarbose] yielded a n_hit in test [1] (setting [5]) of 6.
Turning to `C[C@@H](O[C@H]1OCCN(Cc2n[nH]c(=O)[nH]2)[C@H]1c1ccc(F)cc1)c1cc(C(F)(F)F)cc(C(F)(F)F)c1` [Aprepitant], the n_hit in test [1] (setting [7]) is 10.
In test [1] (setting [6]), `S=c1nc[nH]c2nc[nH]c12` [Mercaptopurine] registered a n_hit of 4. In addition, in test [3], the “inhibition of the growth of C. difficile bacteria (in words)” value is recorded as “effective in inhibiting the growth”.
Take `C=C(CC)C(=O)c1ccc(OCC(=O)O)c(Cl)c1Cl` [Ethacrynic acid]: in test [1] (setting [5]), the n_hit came to 6. The “selective inhibition of the growth of an enterotoxigenic strain of Bacteroides fragilis (in words)” value in test [4] is given as “selectively inhibiting the growth”. Further, the “selective inhibition of the growth of C. perfringens bacteria (in words)” value in test [2] is “selectively inhibiting the growth”.
`CN(C)CCCN1c2ccccc2Sc2ccc(Cl)cc21` [Chlorpromazine hydrochloride] came in with a n_hit in test [1] (setting [5]) of 6. For the same compound, the “selective inhibition of the growth of C. perfringens bacteria (in words)” value in test [2] is reported as “selectively inhibiting the growth”.
The like results for `CCOC(=O)/C=C(C)/C=C/C=C(C)/C=C/c1c(C)cc(OC)c(C)c1C` [Etretinate] were, in that order, 1 and “selectively inhibiting the growth”.
`Cc1cccc(CN2CCN(C(c3ccccc3)c3ccc(Cl)cc3)CC2)c1` (stereo not drawn) [Meclozine dihydrochloride] yielded a n_hit in test [1] (setting [6]) of 8. The “inhibition of the growth of C. difficile bacteria (in words)” value in test [3] is “effective in inhibiting the growth”.
Regarding `Cc1c(C)c2c(c(C)c1O)CCC(C)(COc1ccc(CC3SC(=O)NC3=O)cc1)O2` (stereo not drawn) [Troglitazone], the n_hit in test [1] (setting [7]) is recorded as 13.
In test [1] (setting [6]), `CCCc1nc2c(C)cc(-c3nc4ccccc4n3C)cc2n1Cc1ccc(-c2ccccc2C(=O)O)cc1` [Telmisartan] yielded a n_hit of 4. Also, in test [3], the “inhibition of the growth of C. difficile bacteria (in words)” value was “effective in inhibiting the growth”.
